The text below walks through data of US8802674B2, “Aminopyrimidine derivatives as LRRK2 modulators” (Genentech, Inc., priority 2011, dated 2014).

The experiment deals with LRRK2 (Homo sapiens (Human), UniProt Q5S007, G2019S). Description: In Vitro LRRK2 LabChip Assay. Type of experiment: biochemical. The essentials:
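Phosphorylated and unphosphorylated peptides were separated by capillary electrophoresis and quantified by fluorescence. Ki came from a tight-binding equation, given in μM.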

Chain of LRRK2 (Q5S007 970-2527 G2019S limits assumed): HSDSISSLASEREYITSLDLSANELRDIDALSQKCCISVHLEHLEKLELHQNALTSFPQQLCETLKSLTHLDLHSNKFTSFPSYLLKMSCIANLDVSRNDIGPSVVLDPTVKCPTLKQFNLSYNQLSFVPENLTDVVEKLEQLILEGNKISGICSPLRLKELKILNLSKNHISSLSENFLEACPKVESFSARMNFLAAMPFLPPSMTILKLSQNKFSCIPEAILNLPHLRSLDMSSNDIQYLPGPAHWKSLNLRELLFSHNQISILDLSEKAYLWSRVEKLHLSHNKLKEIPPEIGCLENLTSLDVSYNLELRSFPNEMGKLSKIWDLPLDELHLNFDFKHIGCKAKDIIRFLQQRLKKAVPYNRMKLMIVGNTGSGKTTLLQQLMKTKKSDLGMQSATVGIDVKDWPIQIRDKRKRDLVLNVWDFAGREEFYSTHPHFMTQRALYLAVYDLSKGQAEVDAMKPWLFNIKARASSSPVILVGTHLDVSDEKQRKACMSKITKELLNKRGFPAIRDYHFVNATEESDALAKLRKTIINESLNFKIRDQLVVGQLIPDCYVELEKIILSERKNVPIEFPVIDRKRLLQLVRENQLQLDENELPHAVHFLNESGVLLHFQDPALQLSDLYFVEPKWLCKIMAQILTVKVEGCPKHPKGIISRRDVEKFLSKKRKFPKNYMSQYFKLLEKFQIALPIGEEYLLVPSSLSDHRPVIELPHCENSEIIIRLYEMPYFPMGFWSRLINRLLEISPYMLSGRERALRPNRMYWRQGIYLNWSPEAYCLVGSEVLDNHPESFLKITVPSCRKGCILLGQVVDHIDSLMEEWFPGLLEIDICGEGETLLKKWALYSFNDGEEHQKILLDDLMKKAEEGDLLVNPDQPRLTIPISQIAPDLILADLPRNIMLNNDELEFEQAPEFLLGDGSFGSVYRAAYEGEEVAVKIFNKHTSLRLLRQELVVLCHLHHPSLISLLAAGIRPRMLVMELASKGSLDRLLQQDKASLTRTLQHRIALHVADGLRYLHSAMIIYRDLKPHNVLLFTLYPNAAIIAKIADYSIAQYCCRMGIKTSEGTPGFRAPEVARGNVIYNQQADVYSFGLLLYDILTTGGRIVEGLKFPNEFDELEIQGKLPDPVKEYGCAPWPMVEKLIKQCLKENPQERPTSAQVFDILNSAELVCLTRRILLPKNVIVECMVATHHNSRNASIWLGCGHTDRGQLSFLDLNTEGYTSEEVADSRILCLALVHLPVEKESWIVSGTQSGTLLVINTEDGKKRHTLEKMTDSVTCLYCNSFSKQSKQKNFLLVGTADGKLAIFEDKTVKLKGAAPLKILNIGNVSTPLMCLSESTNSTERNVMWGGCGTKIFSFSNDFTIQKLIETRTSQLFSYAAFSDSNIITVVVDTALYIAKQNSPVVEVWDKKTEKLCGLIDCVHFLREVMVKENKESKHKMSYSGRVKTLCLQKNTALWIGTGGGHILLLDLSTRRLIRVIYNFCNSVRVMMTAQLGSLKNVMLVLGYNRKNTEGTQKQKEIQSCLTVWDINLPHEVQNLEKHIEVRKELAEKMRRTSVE

One may read the Ki as the dissociation constant of the complex between target and ligand, obtained from inhibition or displacement. A high value points to a looser hold on the target. Regarding `CCN(CC)C(=O)c1ccc(Nc2ncc(C(F)(F)F)c(NC)n2)c(OC)c1` [Example 275, N,N-Diethyl-3-methoxy-4-(4-methylamino-5-trifluoromethyl-pyrimidin-2-ylamino)-benzamide], affinity (Table 6) was put at a Ki of 3.3 nM.

As for `CCNc1nc(Nc2cc(F)c(C(=O)N3CCOCC3)cc2OCC)ncc1C(F)(F)F` [Example 309, [5-Ethoxy-4-(4-ethylamino-5-trifluoromethyl-pyrimidin-2-ylamino)-2-fluoro-phenyl]-morpholin-4-yl-methanone], the affinity (Table 6), expressed as Ki, was 2.1 nM.

On to `CNc1nc(Nc2cc(OC)c(C(=O)N3CCOCC3)cc2Cl)ncc1Br` [Example 288, [4-(5-Bromo-4-methylamino-pyrimidin-2-ylamino)-5-chloro-2-methoxy-phenyl]-morpholin-4-yl-methanone], for which, where the note is “Table 6”, the inhibitory constant (Ki) is 2.6 nM.

With `CCNc1nc(Nc2cc(F)c(C(=O)N(C)CCOC)cc2OC)ncc1C(F)(F)F` [Example 304, 4-(4-Ethylamino-5-trifluoromethyl-pyrimidin-2-ylamino)-2-fluoro-5-methoxy-N-(2-methoxy-ethyl)-N-methyl-benzamide], for the setting “Table 6”, the affinity, expressed as Ki, was 1.6 nM.

Under “Table 6”, `CCN(CCOC)C(=O)c1cc(OC)c(Nc2ncc(C(F)(F)F)c(NC)n2)cc1F` [Example 308, N-Ethyl-2-fluoro-5-methoxy-N-(2-methoxy-ethyl)-4-(4-methylamino-5-trifluoromethyl-pyrimidin-2-ylamino)-benzamide] showed a Ki of 3.5 nM.

As for `CNc1nc(Nc2ccc(CC(=O)N3CCOCC3)cc2OC)ncc1Cl` [Example 222, 2-[4-(5-Chloro-4-methylamino-pyrimidin-2-ylamino)-3-methoxy-phenyl]-1-morpholin-4-yl-ethanone], the inhibition constant Ki (Table 4) turned out to be 9 nM.

The molecule `CCNc1nc(Nc2ccc(C(=O)N3C[C@@H]4C[C@H]3CO4)c(F)c2OC)ncc1C(F)(F)F` [Example 242, (1S,4S)-2-oxa-5-azabicyclo[2.2.1] heptan-5-yl(4-(4-(ethylamino)-5-(trifluoromethyl)pyrimidin-2-ylamino)-2-fluoro-3-methoxyphenyl) methanone] gave a Ki (Table 4) of 2.8 nM.

`CNc1nc(Nc2cc(OC)c(C(=O)N3CCOC(CO)C3)cc2Cl)ncc1Cl` (centres unmarked) [Example 162, [5-Chloro-4-(5-chloro-4-methylamino-pyrimidin-2-ylamino)-2-methoxy-phenyl]-(2-hydroxymethyl-morpholin-4-yl)-methanone] yielded an inhibition constant Ki (Table 4) of 6.9 nM.

As for `CNc1nc(Nc2ccc(C(=O)N3CCOCC3)cc2OC)ncc1C1CC1` [Example 66, [4-(5-Cyclopropyl-4-methylamino-pyrimidin-2-ylamino)-3-methoxy-phenyl]-morpholin-4-yl-methanone], the Ki (Table 4) amounted to 35.9 nM.

In the case of `CNc1nc(Nc2ccc(C(=O)N3CCOCC3)cc2OC)ncc1C(C)=O` [Example 183, l-{2-[2-Methoxy-4-(morpholine-4-carbonyl)-phenylamino]-4-methylamino-pyrimidin-5-yl}-ethanone], affinity (Table 4) was put at a Ki of 68.2 nM.

In turn, `CNc1nc(Nc2cc(OC)c(C(=O)N3CCOCC3)cc2Cl)ncc1C(F)(F)F` [Example 296, [5-Chloro-2-methoxy-4-(4-methylamino-5-trifluoromethyl-pyrimidin-2-ylamino)-phenyl]-morpholin-4-yl-methanone] registered a Ki (Table 6) of 2 nM.

In the case of `CNc1nc(Nc2ccc(C(=O)NC3CC3)cc2OC)ncc1Cl` [Example 5, 4-(5-Chloro-4-methylamino-pyrimidin-2-ylamino)-N-cyclopropyl-3-methoxy-benzamide], the Ki (Table 4) is 2.4 nM.

As for `CNc1nc(Nc2ccc(C(=O)N3CCOCC3)cc2OCC2CC2)ncc1C(F)(F)F` [Example 285, [3-Cyclopropyl-methoxy-4-(4-methylamino-5-trifluoromethyl-pyrimidin-2-ylamino)-phenyl]-morpholin-4-yl-methanone], for the setting “Table 6”, the Ki was 6.5 nM.

Turning to `CNc1nc(Nc2ccc(C(=O)N3CCCC3)cc2OC)ncc1Cl` [Example 32, [4-(5-Chloro-4-methylamino-pyrimidin-2-ylamino)-3-methoxy-phenyl]-pyrrolidin-1-yl-methanone], the affinity (Table 4), expressed as Ki, was 4.7 nM.

The molecule `COc1cc(C(=O)N2CCOCC2)ccc1Nc1ncc(Cl)c(NCC2CC2)n1` [Example 80, {4-[5-Chloro-4-(cyclopropylmethyl-amino)-pyrimidin-2-ylamino]-3-methoxy-phenyl}-morpholin-4-yl-methanone] showed a Ki (Table 4) of 2.7 nM.

`CNc1nc(Nc2cc(OC)c(C(=O)N3CC(C)OC(C)C3)cc2Cl)ncc1C(F)(F)F` (centres unmarked) [Example 267, [5-Chloro-2-methoxy-4-(4-methylamino-5-trifluoromethyl-pyrimidin-2-ylamino)-phenyl]-(2,6-dimethyl-morpholin-4-yl)-methanone]: the Ki (Table 6) stood at 8 nM.

Turning to `CNc1nc(Nc2ccc(C(=O)N3CCOCC3)cc2OC)ncc1C(F)(F)F` [Example 50, [3-Methoxy-4-(4-methylamino-5-trifluoromethyl-pyrimidin-2-ylamino)-phenyl]-morpholin-4-yl-methanone], the Ki (Table 4) was found to be 2.7 nM.

`CCNc1nc(Nc2cc(F)c(C(=O)N3CCOCC3)cc2OC)ncc1C#N` [Example 316, 4-Ethylamino-2-[5-fluoro-2-methoxy-4-(morpholine-4-carbonyl)-phenylamino]-pyrimdine-5-carbonitrile] gave a Ki (Table 7) of 6.5 nM.

Turning to `CNc1nc(Nc2cc(OC)c(C(=O)N3CCC(C#N)C3)cc2Cl)ncc1Cl` (stereo not drawn) [Example 171, l-[5-Chloro-4-(5-chloro-4-methylamino-pyrimidin-2-ylamino)-2-methoxy-benzoyl]-pyrrolidine-3-carbonitrile], the inhibition constant Ki (Table 4) was determined as 4.5 nM.

Consider `CNc1nc(Nc2ccc(C(=O)N3C[C@H](F)[C@@H](F)C3)cc2OC)ncc1C#N` [Example 245, 2-(4-((3S,4S)-3,4-difluoropyrrolidine-1-carbonyl)-2-methoxyphenylamino)-4-(methylamino) pyrimidine-5-carbonitrile], for which the Ki (Table 4) amounted to 13.5 nM.

Take `COc1cc(C(=O)N2CCOCC2)ccc1Nc1ncc(C#N)c(OC)n1` [Example 315, 4-Methoxy-2-[2-methoxy-4-(morpholine-4-carbonyl)-phenylamino]-pyrimidine-5-carbonitrile]: where the note is “Table 7”, affinity was put at a Ki of 138 nM.

Molecule `CNc1nc(Nc2ccc(C(=O)N3CCCCC3)cc2OC)ncc1Cl` [Example 15, [4-(5-Chloro-4-methylamino-pyrimidin-2-ylamino)-3-methoxy-phenyl]-piperidin-1-yl-methanone] came in with an inhibition constant Ki (Table 4) of 2.5 nM.

Molecule `CNc1nc(Nc2cc(F)c(C(=O)N3CCOCC3)cc2OC)ncc1C#N` [Example 317, 2-[5-Fluoro-2-methoxy-4-(morpholine-4-carbonyl)-phenylamino]-4-methylamino-pyrimidine-5-carbonitrile] yielded an inhibition constant (Ki) (Table 7) of 11.2 nM.

Under “Table 4”, `COc1cc(C(=O)N2CCOCC2)ccc1Nc1ncc(Cl)c(NC2CCOC2)n1` (centres unmarked) [Example 214, {4-[5-Chloro-4-(tetrahydro-furan-3-ylamino)-pyrimidin-2-ylamino]-3-methoxy-phenyl}-morpholin-4-yl-methanone] returned a Ki of 18.4 nM.

Where the note is “Table 4”, `COc1nc(Nc2ccc(C(=O)N3CCOCC3)cc2OC2CC2)ncc1Br` [Example 218, [4-(5-Bromo-4-methoxy-pyrimidin-2-ylamino)-3-cyclopropoxy-phenyl]-morpholin-4-yl-methanone] showed a Ki of 2.5 nM.

Where the note is “Table 4”, `CNc1nc(Nc2cc(OC)c(C(=O)NCCCN)cc2Cl)ncc1Cl` [Example 228, N-(3-Amino-propyl)-5-chloro-4-(5-chloro-4-methylamino-pyrimidin-2-ylamino)-2-methoxy-benzamide] displayed a Ki of 3.8 nM.

`COCCNc1nc(Nc2cc(F)c(C(=O)N3CCOCC3)cc2OC)ncc1Br` [Example 185, {4-[5-Bromo-4-(2-methoxy-ethylamino)-pyrimidin-2-ylamino]-2-fluoro-5-methoxy-phenyl}-morpholin-4-yl-methanone] yielded a Ki (Table 4) of 6.9 nM.

Regarding `CNc1nc(Nc2ccc(C(=O)NC(C)C)cc2OC)ncc1Cl` [Example 53, 4-(5-Chloro-4-methylamino-pyrimidin-2-ylamino)-N-isopropyl-3-methoxy-benzamide], the Ki (Table 4) came to 2 nM.

Where the note is “Table 6”, `CNc1nc(Nc2ccc(C(=O)N3CCOCC3)cc2Br)ncc1C(F)(F)F` [Example 290, [3-Bromo-4-(4-methylamino-5-trifluoromethyl-pyrimidin-2-ylamino)-phenyl]-morpholin-4-yl-methanone] gave a Ki of 7.5 nM.

In turn, `CNc1nc(Nc2ccc(C(=O)N3CCOCC3)cc2OCC2CCC2)ncc1C(F)(F)F` [Example 286, [3-Cyclobutyl-methoxy-4-(4-methylamino-5-trifluoromethyl-pyrimidin-2-ylamino)-phenyl]-morpholin-4-yl-methanone] gave a Ki (Table 6) of 5.2 nM.

The molecule `CNc1nc(Nc2cc(F)c(C(=O)N3CCC[C@H]3COC)cc2OC)ncc1C(F)(F)F` [Example 305, [2-Fluoro-5-methoxy-4-(4-methylamino-5-trifluoromethyl-pyrimidin-2-ylamino)-phenyl]-((S)-2-methoxymethyl-pyrrolidin-1-yl)-methanone] came in with an inhibition constant (Ki) (Table 6) of 3 nM.

`CNc1nc(Nc2cc(F)c(C(=O)N(C)CCOC)cc2OC)ncc1C(F)(F)F` [Example 303, 2-Fluoro-5-methoxy-N-(2-methoxy-ethyl)-N-methyl-4-(4-methylamino-5-trifluoromethyl-pyrimidin-2-ylamino)-benzamide] returned an inhibitory constant (Ki) (Table 6) of 5.9 nM.

Molecule `CNc1nc(Nc2ccc(C(=O)N3CC4CC3CO4)cc2OC)ncc1Cl` (centres unmarked) [Example 62, [4-(5-Chloro-4-methylamino-pyrimidin-2-ylamino)-3-methoxy-phenyl]-(2-oxa-5-aza-bicyclo[2.2.1]hept-5-yl)-methanone] showed a Ki (Table 4) of 4.5 nM.

The molecule `CNc1nc(Nc2ccc(C(=O)N3CCOC(CC(C)C)C3)cc2OC)ncc1Cl` (centres unmarked) [Example 41, [4-(5-Chloro-4-methylamino-pyrimidin-2-ylamino)-3-methoxy-phenyl]-(2-isobutyl-morpholin-4-yl)-methanone] returned a Ki (Table 4) of 4.2 nM.

Consider `CNc1nc(Nc2ccc(C(=O)NCCOC)cc2OC)ncc1C(F)(F)F` [Example 281, 3-Methoxy-N-(2-methoxy-ethyl)-4-(4-methylamino-5-trifluoromethyl-pyrimidin-2-ylamino)-benzamide], for which affinity (Table 6) was put at a Ki of 2.3 nM.
